# From patent EP0706514B1, “COMPOUNDS AND METHODS FOR INHIBITION OF HIV AND RELATED VIRUSES” (MEDIVIR AB, priority 1993, dated 1995)
# Values joined by “and” are separate entries in the source; they are usually repeats but may differ in a detail not shown here. Identical values can stand only once. Like-named read-outs stand apart in the source and are kept apart here.
# Assays:
# recombinant HIV-RT = target: T1, recombinant HIV-RT (Human immunodeficiency virus type 1 group M subtype B, UniProt P04585); experiment: biochemical
# T1 construct: recombinant HIV-RT (diluted in virus disruption buffer to give 200.000 cpm)
# Procedure: 100 mM Tris-HCl pH 7.6, 100 mM KCl, 4 mM MgCl2, 4 mM DTT, 275 mg/ml BSA, 0.5 mg (rA)n(dT)12-18 and 0.3 mM ^3H-=dTTP (specific activity 18.000 cpm/mol). After 60 minutess of incubation 40 ml in duplicate were spotted on paper discs and washed in 5% TCA. After rinsing the paper discs in ethanol they were dried and counted in scintillation fluid.
# HIV virus = experiment: Test A (XTT): reduction of virus-induced cytotoxicity in MT4 cells; assay type: cell-based; details: for % inhibition: Test A
# Procedure: Tests A, B, C, and D (XTT)
# MT4 cells in a medium of RPMI 1640, 5% FCS, penicillin/streptomycin are adjusted to 2x10^5 cells/ml and seeded into microplates (96 wells/plate) […] cell suspension/well giving 2x10^4 cells/well. The compound to be tested is made into a 10 mg/ml mixture in DMSO and stored at -20°C. […] Further dilutions to […] are made in medium containing microplates. Fifty […] of the 400, 40, and 4 mg/ml are transferred to the cell-containing microplates with a multi-channel pipette (final concentration: […]). Finally, […] of virus suspension is added to each well (with a repetitive "Eppendorf" multipipett). […] The plate is put into a plastic bag and incubated for six days in CO2 atmosphere. To each well in the plate is added […] of XTT ((2,3-bis[2-methoxy-4-nitro-5-sulfophenyl]-5-[(phenylamin o)carbonyl]-2H-tetrazolium hydroxide), (1 mg/ml 0.01-0.02 mM N-metyl-phenazonium methosulfate). After six hours of incubation in CO2 atmosphere the plates are covered with adhesive plate sealers and gently mixed on a vortex. Optical densities are determined at a wavelength of 450 nm and a reference wavelength of 650 nm. The percent reduction of cytotoxocity caused by the virus infection is calculated as follows: (OD450 compound - OD450 inf cells)/(OD450 uninf cells - OD450 inf cells)x 100 [formula]
# [1] = Human immunodeficiency virus 1, MT4
# [2] = Human immunodeficiency virus 1, MT4, Test A, MT4 cells, 0.1 µg/ml, read-out: % inhibition
# [3] = Human immunodeficiency virus 1, MT4, Test A, MT4 cells, 1 µg/ml
# [4] = Human immunodeficiency virus 1, MT4, Test A, MT4 cells, 100 µg/ml, read-out: % inhibition
# [5] = IC50, Test I, several values in a cell are repeat determinations
# [6] = Test I, several values in a cell are repeat determinations, read-out: IC50 (converted)
smiles,measurement,setting,value
O=C(Nc1ccc(Cl)cn1)N[C@H]1C[C@H]1c1c(F)cccc1F,IC50,"recombinant HIV-RT; IC50, Test I",2.47 nM and 1.54 nM
same,% inhibition,"recombinant HIV-RT; Test I, 0.001 µg/ml",62%
same,inhibition at 0.001 µg/mL,"recombinant HIV-RT; Test I, 0.001 µg/ml",55%
same,% inhibition,"recombinant HIV-RT; Test I, 0.01 µg/ml",93%
same,inhibition at 0.01 µg/mL,"recombinant HIV-RT; Test I, 0.01 µg/ml",89%
same,inhibition at 0.1 µg/mL,"recombinant HIV-RT; Test I, 0.1 µg/ml (column 4)",98%
same,inhibition at 1 µg/mL,"recombinant HIV-RT; Test I, 1 µg/ml",100%
same,inhibition at 0.1 µg/mL,HIV virus; [1],100%
same,inhibition at 10 µg/mL,HIV virus; [1],100%
same,inhibition at 100 µg/mL,HIV virus; [1],100%
same,inhibition at 0.001 µg/mL,"HIV virus; Human immunodeficiency virus 1, MT4, Test A, MT4 cells, 0.001 µg/ml",7%
same,inhibition at 0.01 µg/mL,"HIV virus; Human immunodeficiency virus 1, MT4, Test A, MT4 cells, 0.01 µg/ml",80%
same,inhibition at 0.1 µg/mL,HIV virus; [2],82%
same,inhibition at 1 µg/mL,HIV virus; [3],86%
same,inhibition at 100 µg/mL,HIV virus; [4],3%
same,% inhibition,"HIV virus; MT4 cells, 0.001 µg/ml",8%
same,% inhibition,"HIV virus; MT4 cells, 0.01 µg/ml",81%
same,% inhibition,"HIV virus; MT4 cells, 1 µg/ml",90%
CCOc1ccc(F)c(CCNC(=O)Nc2ccc(Br)cn2)c1Cl,IC50,"recombinant HIV-RT; IC50, Test I",4.8 nM and 3.36 nM
same,% inhibition,"recombinant HIV-RT; Test I, 0.001 µg/ml",45%
same,inhibition at 0.001 µg/mL,"recombinant HIV-RT; Test I, 0.001 µg/ml",41%
O=C(NCCc1c(F)cccc1F)Nc1ccc(Cl)cn1,inhibition at 0.1 µg/mL,HIV virus; [2],92%
same,inhibition at 1 µg/mL,HIV virus; [3],87%
same,inhibition at 10 µg/mL,"HIV virus; Human immunodeficiency virus 1, MT4, Test A, MT4 cells, 10 µg/ml, read-out: % inhibition",93%
same,inhibition at 100 µg/mL,HIV virus; [4],0%
same,% inhibition,"HIV virus; MT4 cells, 0.001 µg/ml",6%
same,% inhibition,"HIV virus; MT4 cells, 0.01 µg/ml",51% and 94%
same,% inhibition,"HIV virus; MT4 cells, 1 µg/ml",98%
"N#Cc1ccc(NC(=O)N[C@@H]2C[C@@H]2c2c(F)cccc2F)nc1 (racemic) [Example 26, (+,-)-N-(cis-2-(2,6-Difluorophenyl)-cyclopropyl)-N'-(5-cyanopyrid-2-yl)-urea]",IC50,recombinant HIV-RT; [5],28.6 nM and 31.8 nM
"COCOc1c(C(C)=O)ccc(F)c1[C@H]1C[C@H]1NC(=O)Nc1ccc(Cl)cn1 (racemic) [Example 56, (+,-)-N-(cis-2-(5-Acetyl-2-fluoro-6-methoxymethoxyphenyl)cyclopropyl)-N'-(5-chloropyrid-2-yl)-urea]",IC50,recombinant HIV-RT; [5],5.64 nM and 5.39 nM
"CC(=O)c1ccc(F)c([C@H]2C[C@H]2NC(=O)Nc2ccc(Cl)cn2)c1O (racemic) [Example 57, (+,-)-N-(cis-2-(5-Acetyl-2-fluoro-6-hydroxyphenyl)cyclopropyl)-N'-(5-chloropyrid-2-yl)-urea]",IC50,recombinant HIV-RT; [5],1.1 nM (2×) and 1.37 nM
"O=C(Nc1ccc(Cl)cn1)N[C@@H]1C[C@@H]1c1c(F)ccc(O)c1Cl (racemic) [Example 64, (+, -)-N-(cis-2-(2-chloro-3-hydroxy-6-fluorophenyl)cyclopropyl)-N'-(5-chloropyrid-2-yl)-urea]",IC50,recombinant HIV-RT; [5],3.65 nM
"N#Cc1ccc(NC(=O)N[C@@H]2C[C@@H]2c2c(F)cccc2Cl)nc1 (relative stereo) [Example 33, N-(cis-2-(2-chloro-6-fluorophenyl)cyclopropyl)-N'-(5-cyanopyrid-2-yl)-urea]",IC50,recombinant HIV-RT; [5],1.51 nM
"O=C(Nc1ccc(Cl)cn1)N[C@@H]1C[C@@H]1c1c(F)cccc1Cl (relative stereo) [Example 34, N-(cis-2-(2-chloro-6-fluorophenyl)-cyclopropyl) -N'-(5-chloropyrid-2-yl)-urea]",IC50,recombinant HIV-RT; [5],1.18 nM
"O=C(Nc1ccc(Br)cn1)NC1CC1c1c(F)cccc1F [Example 27, (1R,2S)-N-(cis-2-(2,6-Difluorophenyl)-cyclopropyl)-N'-5-bromopyrid-2-yl)-urea]",IC50,recombinant HIV-RT; [6],1.36 nM and 1.63 nM
CC(=O)c1ccc(F)c(CCNC(=O)Nc2ccc(Cl)cn2)c1O [Example 58],IC50,recombinant HIV-RT; [6],108 nM
